# Data published in patent US11596626B2, “Compound for use against pathogenic Neisseria and Haemophilus species and Moraxella catarrhalis” (priority 2017, dated 2023).
# “Also recorded” adds a separate entry of the source.
# Experiments:
# [1] = system: Commensal Neisseria; assay: Growth inhibition by area under the growth curve relative to solvent; assay type: cell-based; settings: 5-50 μM, FIG. 5
# Description: (§1) Before every experiment, bacteria were pre-cultured in 5 ml liquid medium for at least 2 hours then harvested and resuspended in PBS (phosphate buffered saline). Optical density (OD) was determined and a volume equal to an OD of 0.2 was inoculated into 5 ml of the respective medium. NQNO was added at the indicated amounts (5-50 μM). DMSO level was adjusted to 1% of final concentration. Samples were incubated for either 10.5 hours, until they reached stationary phase (three measured values in stationary phase) or until they reached an OD of 2.5. Optical density was determined every 0.5 h.
# Growth experiments with the compounds represented by the Formulas (4) to (7) were conducted against various bacteria, including clinical isolates of N. gonorrhoeae including high priority 3rd generation cephalosporin/fluoroquinolone-resistant strains, strains isolated from disseminated disease settings, and commensal Neisseria and other commensal bacteria and evaluated (FIGS. 5 and 11). Growth of the indicated bacteria was measured as described in Example 1. Growth inhibition was quantified by measuring the “area under the curve” in the presence of the indicated concentrations of the respective compound (5-50 μM) relative to growth in the presence of the solvent only. Black areas indicate growth inhibition with <30% growth compared to control.
# [2] = system: immortalized human vaginal epithelial cells (MS74); assay: MTT assay of metabolic activity (cytotoxicity); assay type: cell-based; settings: FIG. 13
# Excerpt: HeLa S3 cells were cultivated in Dulbecco's modified Eagle's medium (DMEM) medium supplemented with 10% fetal calf serum and passaged every 2-3 days. Primary human vaginal epithelial cells (hVEC/MS74) were obtained from A. J. Schaeffer (Feinberg School of Medicine, Northwestern University, Chicago, Ill.) and are derived from vaginal tissue of a post-menopausal person. The cell line was created through immortalization of these cells with human papilloma virus 16, E6 and E7 genes according to literature (N. Rajan et. al., Characterization of an immortalized human vaginal epithelial cell line. J Urol 163, 616-622 (2000)). MS74 were cultured on gelatine-coated cell culture dished using Dulbecco's modified Eagle's medium (DMEM) medium (biochrom) supplemented with 10% fetal calf serum, 1% non-essential amino acids and 1% pyruvate at 37° C. in 5% CO2 and subcultured when half confluency was reached.
# All plates were coated overnight at 4° C. with 0.1% gelatine in PBS before use. 2×10^4 HeLa S3 or MS74 cells were incubated with the mentioned concentrations of NQNO in 100 μl of their respective medium and incubated for 2 days at 37° C. and 5% CO2. 10 μl of MTT solution (12 mM in PBS, sterile filtered with […]) were added. The cells were subsequently incubated for 2 h at 37° C. […] 0D550 was measured using a Thermo Fisher Varioskan Flash spectrophotometer.
# [3] = system: Neisseria macacae; assay: Growth curves in liquid culture (optical density) vs DMSO control; assay type: cell-based; settings: 5-50 μM, FIG. 3
# Description: (§2) Growth experiments with NQNO were conducted against Neisseria gonorrhoeae strain MS11 (Edwards, M., et al., Antigenic analysis of gonococcal pili using monoclonal antibodies, J Exp Med, 1984. 160(6): p. 1782-91) and a multidrug-resistant N. gonorrhoeae isolate from Slovenia (Unemo M, Golparian O, Potočnik M, Jeverica S. Treatment failure of pharyngeal gonorrhoea with internationally recommended first-line ceftriaxone verified in Slovenia, September 2011. Euro Surveill. 2012; 17(25):pii=20200), Neisseria macacae, and Lactobacillus brevis. The bacteria were inoculated in GC (Difco™ GC medium Ref. 228950, BD Becton Dickinson) and PPM broth (15 g/L Proteon Pepton, 1 g/L soluble starch, 5 g/L NaCl, 4 g/L KH2PO4, 1 g/L K2HPO4, pH 7.5) (Neisseriae) or TSB (BBL™ Trypticase Soy Broth Ref 211768, BD Becton Dickinson) (Lactobacillus) supplemented with solvent (DMSO) or the indicated concentrations of NQNO (5-50 04) and their growth at 37° C. was monitored over the course of 10 h by optical density readings in 30 minute intervals.
# (§3) Neisseria strains were cultured in PPM medium (15 g/l Proteon Pepton, 1 g/l soluble starch, 5 g/l NaCl, 4 g/l KH2PO4, 1 g/l K2HPO4, pH 7.5) for liquid culture and on GC plates (BD Difco™ GC Medium Base) supplemented with 1% vitamin mix (100 g/l glucose, 10 WI glutamine, 26 g/l L-cystein, 100 mg/l carboxylase, 250 mg/l NAD, 500 μl Fe(NO3)3, 150 mg/l arginine, 3 mg/l thiamine-HCl, 10 mg/l vitamine B12, 13 mg/I p-amino benzoic acid, 1.1 g/l L-cystin, 1 g/l adenine; 500 mg/l uracil, 30 mg/I guanine). […]
# as §1, with “NQNO was added at the indicated amounts (5-50 μM). DMSO level was adjusted to 1% of final concentration.” left out
# [4] = system: Neisseria gonorrhoeae strain MS11; assay: as above; assay type: cell-based
# Description: as §2, §3
# as §1, with “NQNO was added at the indicated amounts (5-50 μM). DMSO level was adjusted to 1% of final concentration.” left out
# [5] = system: multidrug-resistant N. gonorrhoeae isolate from Slovenia; assay: as above; assay type: cell-based, Neisseria gonorrhoeae
# Description: as §2, with “intervals. […]” for “intervals.”
# Before every experiment, bacteria were pre-cultured in 5 ml liquid medium for at least 2 hours then harvested and resuspended in PBS (phosphate buffered saline). Optical density (OD) was determined and a volume equal to an OD of 0.2 was inoculated into 5 ml of the respective medium. […] Optical density was determined every 0.5 h.
# [6] = Tissue integrity and tolerability after topical vaginal application in CEAtg mice; assay type: in vivo
# Description: 6 to 8 week old, female CEA-transgenic mice were infected with N. gonorrhoeae. 2 h after infection, the animals were treated with 20 μl buffer containing solvent (DMSO) or 50 μM NQNO (Compound represented by the Formula (5)). 20 h later, the genital tract was excised and cryosections were stained for cell nuclei (Hoechst; blue), human CEA (red) and N. gonorrhoeae (gonococci, green) (FIG. 8).
# Additional cryosections from the same samples were stained for cell nuclei (Hoechst; blue), human collagen (red) and N. gonorrhoeae (gonococci, green) (FIG. 9).
# 6 to 8 week old, female CEA-transgenic mice were treated with 20 μl buffer containing solvent (DMSO) or 50 μM NQNO (Compound represented by the Formula (5)). 20 h later, the genital tract was excised, fixed, paraffin embedded and tissue sections were stained with HE (Haematoxilin/Eosin) solution.
# In particular, in the above experiment the genital tract of infected and NQNO/DMSO or DMSO treated animals was excised and placed in 4% neutral buffer containing formalin overnight followed by 0.4% PFA (paraformaldehyde) treatment. The tissue was then dehydrated and embedded in paraffin. 10 μm serial sections were cut, deparaffinized and rehydrated in a graded series (100% to 75%) of ethanol. Sections were serially stained with Hematoxilin solution according to Mayer (Sigma) and 0.5% Eosin G solution (Roth).
compound,measurement,setting,value
"CCCCCCCCCc1cc(=O)c2ccccc2n1O [NQNO, 1-Hydroxy-2-nonylquinolin-4(1H)-one]",Growth inhibition (area under the curve relative to solvent),[1],not compromised
same,Metabolic activity (MTT),"[2]; 50 μM, two days",only slightly reduced metabolic activity
same,"Cytotoxicity (metabolic activity, MTT)","[2]; up to 25 μM, 2 days",not harmed
same,Effect on growth,[3],did not compromise the growth
same,Concentration leading to complete abrogation of gonococcal growth in vitro,"[4]; N. gonorrhoeae MS11, 37° C., growth monitored over 10 h, FIG. 1",≤ 5 µM
same,Concentration leading to complete abrogation of gonococcal growth in vitro,"[4]; N. gonorrhoeae MS11, mass concentration given for 5 μM",< 1.4 µg/mL
same,Concentration leading to complete growth inhibition,"[5]; 37° C., 10 h, FIG. 2",≤ 5 µM
same,Concentration leading to complete growth inhibition,[5]; mass concentration given for 5 μM,< 1.4 µg/mL
same,Histology of vaginal tract epithelium (HE staining),"[6]; CEAtg mice, 20 μl of 50 μM, 20 h, FIG. 10",intact striated epithelium
same,Integrity of mucosal surface and subepithelial tissue (CEA and collagen staining),"[6]; infected CEAtg mice, 20 μl of 50 μM topical, 20 h, FIGS. 8 and 9",continuous and unaltered mucosal surface; also recorded: does not damage the mucosal surface
same,Signs of discomfort in treated mice,[6]; single topical application,did not show any signs of discomfort
